Test results reported in ChEMBL document CHEMBL3351303, “Discovery of Imigliptin, a Novel Selective DPP-4 Inhibitor for the Treatment of Type 2 Diabetes” (ACS Med Chem Lett, 2014).

How the values were obtained:
Dipeptidyl peptidase 8 = Dipeptidyl peptidase 8 (Homo sapiens, UniProt Q6V1X1); test: Inhibition of human recombinant DPP8 pre-incubated with compound for 15 mins before substrate addition by luminescence assay
Dipeptidyl peptidase 9 = Dipeptidyl peptidase 9 (Homo sapiens, UniProt Q86TI2); test: Inhibition of human recombinant DPP9 pre-incubated with compound for 15 mins before substrate addition by luminescence assay
[1] = Clearance in rat at 2 mg/kg, iv; format: ADME, organism-based; parameters: dose 2 mg/kg, route intravenous; conditions: in vivo
[2] = Volume of distribution at steady state in rat at 2 mg/kg, iv; format: ADME, organism-based; parameters: dose 2 mg/kg, route intravenous; conditions: in vivo, read-out: Vdss
[3] = Half life in rat at 2 mg/kg, iv; format: ADME, organism-based; parameters: dose 2 mg/kg, route intravenous; conditions: in vivo
[4] = Cmax in rat at 4 mg/kg, po; format: ADME, organism-based; parameters: dose 4 mg/kg, route oral; conditions: in vivo
[5] = AUClast in rat at 4 mg/kg, po; format: ADME, organism-based; parameters: time 0 - last, dose 4 mg/kg, route oral; conditions: plasma
[6] = Half life in rat at 4 mg/kg, po; format: ADME, organism-based; parameters: dose 4 mg/kg, route oral; conditions: in vivo
[7] = Oral bioavailability in rat at 4 mg/kg; format: ADME, organism-based; conditions: in vivo
[8] = Clearance in rat at 5 mg/kg, iv; format: ADME, organism-based; parameters: dose 5 mg/kg, route intravenous; conditions: in vivo
[9] = Volume of distribution at steady state in rat at 5 mg/kg, iv; format: ADME, organism-based; parameters: dose 5 mg/kg, route intravenous; conditions: in vivo, read-out: Vdss
[10] = Half life in rat at 5 mg/kg, iv; format: ADME, organism-based; parameters: dose 5 mg/kg, route intravenous; conditions: in vivo
[11] = Cmax in rat at 10 mg/kg, po; format: ADME, organism-based; parameters: dose 10 mg/kg, route oral; conditions: in vivo
[12] = AUClast in rat at 10 mg/kg, po; format: ADME, organism-based; parameters: time 0 - last, dose 10 mg/kg, route oral; conditions: plasma
[13] = Half life in rat at 10 mg/kg, po; format: ADME, organism-based; parameters: dose 10 mg/kg, route oral; conditions: in vivo
[14] = Oral bioavailability in rat at 10 mg/kg; format: ADME, organism-based; conditions: in vivo
Mus musculus [15] = test: Inhibition of DPP4 activity in C57BL/6 mouse at 3 mg/kg, po administered as single dose 30 mins before orally glucose challenge and measured 20 mins post oral glucose challenge by luminescence assay; conditions: C57BL/6, po, read-out: INH
[16] = Plasma concentration in C57BL/6 mouse at 3 mg/kg, po administered as single dose 30 mins before orally glucose challenge and measured 20 mins post oral glucose challenge; format: ADME, organism-based; parameters: dose 3 mg/kg, route oral
Mus musculus [17] = organism: Mus musculus; test: animal or person; conditions: C57BL/6, Plasma, po, read-out: INH

Sequence of Dipeptidyl peptidase 8 (Q6V1X1 whole entry): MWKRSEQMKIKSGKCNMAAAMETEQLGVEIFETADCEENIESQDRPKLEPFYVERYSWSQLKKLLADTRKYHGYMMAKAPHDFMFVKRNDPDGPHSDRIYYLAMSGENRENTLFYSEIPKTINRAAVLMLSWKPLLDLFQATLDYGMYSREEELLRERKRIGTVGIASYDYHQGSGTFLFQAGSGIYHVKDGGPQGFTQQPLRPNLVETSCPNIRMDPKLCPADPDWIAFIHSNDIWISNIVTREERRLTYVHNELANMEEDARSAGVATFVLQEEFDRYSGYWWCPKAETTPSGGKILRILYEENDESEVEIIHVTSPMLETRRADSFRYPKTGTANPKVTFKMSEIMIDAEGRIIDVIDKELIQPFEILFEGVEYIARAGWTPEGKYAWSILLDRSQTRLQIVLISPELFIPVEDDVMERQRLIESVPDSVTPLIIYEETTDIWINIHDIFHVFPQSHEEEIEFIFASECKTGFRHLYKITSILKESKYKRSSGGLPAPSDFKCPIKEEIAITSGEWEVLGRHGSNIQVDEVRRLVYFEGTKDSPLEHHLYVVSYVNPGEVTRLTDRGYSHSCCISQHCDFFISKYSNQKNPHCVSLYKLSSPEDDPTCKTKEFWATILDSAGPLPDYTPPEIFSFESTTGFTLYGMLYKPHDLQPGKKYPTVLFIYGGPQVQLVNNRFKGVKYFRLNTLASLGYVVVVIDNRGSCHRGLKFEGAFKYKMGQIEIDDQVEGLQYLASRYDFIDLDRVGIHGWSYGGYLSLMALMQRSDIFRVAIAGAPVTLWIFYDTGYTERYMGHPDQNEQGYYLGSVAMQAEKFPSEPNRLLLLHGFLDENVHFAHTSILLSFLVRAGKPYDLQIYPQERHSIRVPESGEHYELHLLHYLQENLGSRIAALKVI
Sequence of Dipeptidyl peptidase 9 (Q86TI2 whole entry): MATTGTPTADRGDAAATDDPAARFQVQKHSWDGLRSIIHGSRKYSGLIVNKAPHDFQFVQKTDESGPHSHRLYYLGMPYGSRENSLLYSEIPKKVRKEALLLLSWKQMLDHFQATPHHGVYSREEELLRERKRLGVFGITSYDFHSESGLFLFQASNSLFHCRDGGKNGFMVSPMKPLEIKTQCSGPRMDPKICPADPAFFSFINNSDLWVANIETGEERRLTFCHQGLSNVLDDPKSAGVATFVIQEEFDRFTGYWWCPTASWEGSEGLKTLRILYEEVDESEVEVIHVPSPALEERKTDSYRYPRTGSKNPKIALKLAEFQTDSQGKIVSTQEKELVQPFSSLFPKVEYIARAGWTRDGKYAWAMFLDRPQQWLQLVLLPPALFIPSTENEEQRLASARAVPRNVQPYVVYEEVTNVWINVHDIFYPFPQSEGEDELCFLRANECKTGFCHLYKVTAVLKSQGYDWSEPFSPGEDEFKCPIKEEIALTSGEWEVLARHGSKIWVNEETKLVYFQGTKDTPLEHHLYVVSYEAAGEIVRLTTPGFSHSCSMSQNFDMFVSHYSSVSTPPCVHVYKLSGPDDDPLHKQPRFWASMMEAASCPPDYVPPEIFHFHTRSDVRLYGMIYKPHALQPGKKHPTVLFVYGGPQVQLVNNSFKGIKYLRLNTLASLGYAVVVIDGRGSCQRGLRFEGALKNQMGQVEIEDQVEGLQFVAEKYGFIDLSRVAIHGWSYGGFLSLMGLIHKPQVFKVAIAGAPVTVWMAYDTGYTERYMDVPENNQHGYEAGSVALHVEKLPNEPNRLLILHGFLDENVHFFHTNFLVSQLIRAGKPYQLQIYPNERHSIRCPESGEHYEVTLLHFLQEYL

SMILES	IC50 (Dipeptidyl peptidase 8) [µM]	IC50 (Dipeptidyl peptidase 9) [µM]	clearance [1] [mL/min/kg]	Vd [2] [L/kg]	half-life [3] [h]	Cmax [4] [ng/mL]	AUC(0-t) [5] [ng·h/mL]	half-life [6] [h]	bioavailability [7] [%]	also measured
Cn1c(=O)n(Cc2ccccc2C#N)c2c(N3CCC[C@@H](N)C3)cc(C(F)(F)F)nc21	> 100	> 100	36	12.2	4.72	256	1610	4.4	89	
Cn1c(=O)n(Cc2ccccc2C#N)c2c(N3CCC[C@@H](N)C3)cc(CO)nc21			27.5	1.02	2.48	3.52	19.5	1.9	< 1	
Cn1c(=O)n(Cc2ccccc2C#N)c2c(N3CCC[C@@H](N)C3)cc(C(N)=O)nc21	> 100	> 100								clearance [8]: 73.2 mL/min/kg; Vd [9]: 4.22 L/kg; half-life [10]: 0.8 h; Cmax [11]: 103 ng/mL; AUC(0-t) [12]: 209 ng·h/mL; half-life [13]: 3.7 h; bioavailability [14]: 9%
Cn1c(=O)n(Cc2ccccc2C#N)c2c(N3CCC[C@@H](N)C3)cc(N3CCCC3)nc21	> 100	> 100								
Cn1c(=O)n(Cc2ccccc2C#N)c2c(N3CCC[C@@H](N)C3)cc(N3CCOCC3)nc21	> 100	> 100								
N[C@@H](CC(=O)N1CCn2c(nnc2C(F)(F)F)C1)Cc1cc(F)c(F)cc1F [SITAGLIPTIN]										inhibition in vivo at 3 mg/kg (Mus musculus [15]): 59.5%; concentration at 20 min [16]: 179 ng/mL; inhibition in vivo at 3 mg/kg (Mus musculus [17]): 59%
